How the values were obtained:
5-HT2A receptor [1] = molecular target: T1, 5-HT2A receptor (Homo sapiens, UniProt P28223); test: Functional cell-based 5-HT2A assay, agonism mode (CHO-K1/5-HT2A, Fluo-8 calcium flux); details: CHO-K1/5-HT2A cells
T1 construct: purchased PerkinElmer ES-313-M400UA
Protocol: Herein, functional, cell-based assays were conducted to determine (1) agonist potency and efficacy of drugs at the 5-HT2A receptor (agonist mode), and (2) antagonist potency at the 5-HT2A receptor (antagonist mode).
All cells were grown and maintained as a monolayer in Ham's F12 nutrient mix supplemented with 10% fetal bovine serum (FBS) and 400 μg/mL geneticin (G418) all from ThermoFisher Scientific and used according to the manufacturer's instructions. Cells were cultured and incubated at 37° C. in a humidified oxygen atmosphere with 5% CO2. To evaluate the activation of 5-HT2A signal transduction, cells were first seeded in tissue culture-treated, black-walled, clear-bottom 96-well plates (Thermo Scientific) at a density of 40,000 cells/well in 100 pl Ham's F12 nutrient mix supplemented with 2% FBS. Cells were cultured for 24 h in a humidified incubator at 37° C. and 5% CO2. Cells were then loaded with Fluo-8 calcium indicator dye for 1 h at 37° C. and an additional 30 min at room temperature as per the manufacturer's protocol. […] Kinetic increases in intracellular calcium levels were measured immediately after addition of test compounds every 6.4 s for a total of 3 min using the FlexStation 3 multimode microplate reader and SoftMax Pro 7.1 analysis software (Molecular Devices, moleculardevices.com). […] EC50 values were calculated from the normalized data from GraphPad PRISM software.

[2] = test system: stressed C57BL/6-Elite mice; test: Mouse marble burying (MB) assay to assess anxiolytic potential; type: in vivo; details: i.p., psilocin 3 mg/kg, compound (XV) 10 mg/kg; vs Vehicle+Stress
Protocol: Marble burying behavior is used to measure the level of anxiety in a rodent when it encounters unfamiliar objects (Deacon, 2006, Nature Protocols 1:122-124). This assay is routinely applied to the study of chronically stressed mice, where drug candidates are evaluated for an ability to diminish stress-induced, anxiety-like behaviours (e.g., Wang et al., ACS Chem. Neurosci. 14:977-987). Positive results in this assay may be interpreted as an indication of therapeutic (anxiolytic) potential in the treatment of various psychiatric disorders. Herein, we applied the marble burying model to investigate whether selected drugs could alleviate anxiety behaviour in stressed mice.
All animal protocols were approved by the University of Calgary Animal Care and Use Committee. C57BL/6-Elite mixed sex mice were obtained from Charles River Laboratories (Toronto, Canada) at 8-9 weeks old. […]
On the testing days, 10 glass marbles (approx. 15 mm in diameter) were evenly spaced on 5 cm of wood-chip bedding (lightly tamped down to make a flat and even surface). […] The number of marbles buried to ⅔rds their depth was measured. Fully buried marbles were counted as 1 and partially (at least ⅔rds) buried marbles were counted as 0.5. […]

5-HT2A receptor [3] = molecular target: T1, 5-HT2A receptor; test: Functional cell-based 5-HT2A assay, antagonism mode (CHO-K1/5-HT2A, 100 nM serotonin, calcium flux); details: CHO-K1/5-HT2A cells, with 100 nM serotonin
Description: A variety of 5-HT2A receptor engagement modes have been correlated with positive outcomes in the treatment of neurological disorders. While agonism is associated with a host of favourable effects, antagonizing the 5-HT2A receptor is also an attractive pharmacological approach. For example, antagonism is known to alleviate both dyskinesisa and psychosis in Parkinson's Disorder and holds promise for other psychiatric diseases (Mestre et al., 2013, Expert Opin. Investig. Drugs 22:411-421). Similarly positive outcomes are noted for inverse agonists (Cummings et al., 2014, Lancet, 383:533-540; Roberts, 2006, Curr. Opin. Invest. Drugs 7:653-660). […]
Stimulation of 5-HT2A coupled to the Gq family proteins leads to activation of the phospholipase C (PLC) pathway, ultimately resulting in the accumulation of cytosolic calcium (Cussac et al., Europ. J. Pharmacol., 2008, 594 (1-3), 32-38). […] Kinetic increases in intracellular calcium levels were measured immediately after addition of ligands every 6.4 s for a total of 3 min using the FlexStation 3 multimode microplate reader and SoftMax Pro 7.1 analysis software (Molecular Devices, moleculardevices.com). […] IC50 values were calculated from the normalized data from GraphPad PRISM software. […]

[4] = test system: stressed C57BL/6-Elite mice; test: Mouse sucrose preference (SP) assay to assess antidepressant potential; type: in vivo; details: i.p., psilocin 3 mg/kg, compound (XV) 10 mg/kg; one day after administration
Protocol: Reduced intake of pleasurable substances, e.g., of sucrose water, is a validated behavioral measure of anhedonic/depressive-like state in rodents (Moreau et al., 1992, Eur. Neurpsychopharmocol. 2:43-49; Liu et al., 2018, Nature Protocols 13:1686-1698). […] In the SP assay, cohorts of mice are pre-stressed, leading to a depressed state. The ability of drugs to rescue this state are evaluated.
All animal protocols were approved by the University of Calgary Animal Care and Use Committee. C57BL/6-Elite mixed sex mice were obtained from Charles River Laboratories (Toronto, Canada) at 8-9 weeks old. Mice were maintained on a 12:12 h light/dark schedule (lights on at 07:00 hours) with ad libitum access to food and water and group-housed until 2 days prior to the start of the mild chronic stress paradigm, then mice were single-housed. […]
Mice were introduced to 1% sucrose solution in their drinking water for 24 hrs for 2 days prior to initial sucrose preference testing to reduce impact of novelty. […] The consumption in water, sucrose solution, and total intake of liquids was measured by weighing each bottle before and after the 24-hr experiment. The preference for sucrose was calculated as a percentage of the consumed sucrose solution from the total intake of both water and sucrose solutions. […]

T1 sequence (P28223 whole entry): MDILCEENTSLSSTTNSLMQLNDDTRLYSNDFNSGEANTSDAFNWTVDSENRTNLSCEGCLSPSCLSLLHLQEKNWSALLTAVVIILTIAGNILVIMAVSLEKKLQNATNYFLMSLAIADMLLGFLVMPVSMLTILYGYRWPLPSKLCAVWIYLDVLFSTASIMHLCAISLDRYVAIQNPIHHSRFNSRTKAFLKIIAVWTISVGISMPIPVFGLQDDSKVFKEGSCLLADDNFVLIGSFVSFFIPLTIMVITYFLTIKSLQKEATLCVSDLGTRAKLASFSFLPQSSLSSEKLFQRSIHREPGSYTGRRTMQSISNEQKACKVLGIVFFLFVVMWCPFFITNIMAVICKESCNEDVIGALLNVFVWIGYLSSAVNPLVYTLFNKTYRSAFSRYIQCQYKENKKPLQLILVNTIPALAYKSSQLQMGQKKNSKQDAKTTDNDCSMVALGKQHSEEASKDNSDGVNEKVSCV

CN(C)CCc1c[nH]c2cc(F)cc(N3CCOCC3)c12 [Compound (XV)]
engagement at the 5-HT2A receptor, agonist mode (5-HT2A receptor [1]): agonism | anxiety-linked (marble burying) behavior in stressed mice [2]: alleviated | engagement at the 5-HT2A receptor, antagonist mode (5-HT2A receptor [3]): antagonism | sucrose preference behaviour in stressed mice vs no drug control [4]: significant preference for sucrose

From patent publication US12577232B2, “N-heterocycle substituted tryptamine derivatives and methods of using” (ENVERIC B[…] INC., priority 2024, dated 2026)
